From US20210292410A1, “TREATMENT PARADIGM FOR AN ANTI-CD19 ANTIBODY AND VENETOCLAX COMBINATION TREATMENT” (MorphoSys AG, priority 2017, published 2021)

Experiments:
CYP17 [1] = assay: Endocrine panel (progesterone) in ER+ breast cancer patients; type: in vivo, human; conditions: vs. patients treated with abiraterone and prednisone (Abi/Pred), FIG. 20
Method: (§1) Subjects that fulfill the Inclusion Criteria captured in Table 4 were administered seviteronel (600 mg for male subjects, 4×150 mg tablets; 450 mg for female subjects, 3×150 mg tablets) once daily until any of the criteria in Table 2 are met. Table 5 captures the clinical screening data and screening schedule for the various screens for each of the male subjects.
as §1, with “tablets) and dexamethasone (0.5 mg)” for “tablets)”
(§2) Blood samples were collected for evaluation of steroid hormone changes as a pharmacodynamics indicator of CYP17 inhibition over time (e.g., DHEA, DHEA-S, androstenedione, testosterone, cortisol, corticosterone, progesterone, pregnenolone, estradiol, estrone and ACTH).

CYP17 [2] = assay: Endocrine panel in prostate cancer patients treated with seviteronel or seviteronel and dexamethasone; type: in vivo, human; conditions: seviteronel 600 mg once daily, FIG. 7
Method: (§3) Males that fulfill the Inclusion Criteria captured in Table 1 were administered seviteronel (600 mg; 4×150 mg tablets) once daily until any of the criteria in Table 2 are met. Table 3 captures the clinical screening data and screening schedule for the various screens for each of the male subjects.
as §3, with “tablets) and dexamethasone (0.5 mg)” for “tablets)”
as §2

CC(C)[C@](O)(c1ccc2cc(OC(F)F)c(OC(F)F)cc2c1)c1c[nH]nn1 [SEVI]
increase in progesterone (CYP17 [1]): lack of clinically relevant increases in progesterone
endocrine profile: "up-stream" steroids (CYP17 [2]): limited increase
endocrine profile: ACTH (CYP17 [2]): modest ACTH increase
endocrine profile: androgen (CYP17 [2]): modest androgen decline
endocrine profile: cortisol (CYP17 [2]): modest cortisol decrease
